In Sander's compilation of Henry's law constants (doi:10.1515/zpch-1906-5519):

assay: Henry solubility constant Hcp at 298.15 K (mol/(m3 Pa)); conditions: reference: Rex (1906)

| SMILES | Henry solubility constant Hcp |
| --- | --- |
| CCI [iodoethane] | 0.0015 |
| CCCBr [1-bromopropane] | 0.0011 |
| ClCCl [dichloromethane] | 0.0041 |
| CC(C)I [2-iodopropane] | 0.00085 |
| CC(C)Br [2-bromopropane] | 0.0009 |
| CCBr [bromoethane] | 0.0013 |
| CC(C)Cl [2-chloropropane] | 0.00056 |
| CCCI [1-iodopropane] | 0.001 |
| CI [iodomethane] | 0.0019 |
| ClC(Cl)(Cl)Cl [tetrachloromethane] | 0.00035 |
| S=C=S [carbon disulfide] | 0.00054 |
| BrCBr [dibromomethane] | 0.011 |
